Measurements taken from patent publication US10913727B2, “Modulators of the integrated stress pathway” (Calico Life Sciences LLC, priority 2016, dated 2021).

tested on: HEK293T cells carrying the ATF4 luciferase reporter; assay: ATF4-Luc assay, in vitro model of Vanishing Cell White Matter Disease (VWMD); assay type: cell-based; conditions: Homo sapiens, HEK-293T, 1 μg/mL tunicamycin, 7 hours, One Glo luminescence
Outline: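 Compound at 200 nM and tunicamycin at 1 μg/mL were given together for 7 h to HEK293T cells stably transduced with an ATF4 5′-UTR-driven firefly luciferase reporter. Read-out by luminescence, reported as EC50.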

Row | SMILES | EC50
1 | O=C(COc1ccc(Cl)c(Cl)c1)NC12CC(NC(=O)c3cnc(C(F)F)cn3)(C1)C2 [Compound 201, N-{3-[2-(3,4-dichlorophenoxy)acetamido]bicyclo[1.1.1]pentan-1-yl}-5-(difluoromethyl)pyrazine-2-carboxamide] | < 50 nM
2 | O=C(COc1ccc(Cl)c(F)c1)NC12CC(NC(=O)c3cccnc3-n3cccn3)(C1)C2 [Compound 807, N-{3-[2-(4-chloro-3-fluorophenoxy)acetamido]bicyclo[1.1.1]pentan-1-yl}-2-(1H-pyrazol-1-yl)pyridine-3-carboxamide] | > 2000 nM
3 | COCc1cncc(C(=O)NC23CC(NC(=O)COc4ccc(Cl)c(Cl)c4)(C2)C3)c1 [Compound 569, N-{3-[2-(3,4-dichlorophenoxy)acetamido]bicyclo[1.1.1]pentan-1-yl}-5-(methoxymethyl)pyridine-3-carboxamide] | < 50 nM
4 | COCc1ccc(C(=O)NC23CC(NC(=O)COc4ccc(Cl)c(F)c4)(C2)C3)cc1 [Compound 552, N-{3-[2-(4-chloro-3-fluorophenoxy)acetamido]bicyclo[1.1.1]pentan-1-yl}-4-(methoxymethyl)benzamide] | 50 to 250 nM
5 | O=C(COc1ccc(Cl)c(F)c1)NC12CCC(NC(=O)c3ccc4oc(=O)ccc4c3)(CC1)[C@@H](O)C2 [Compound 407, N-{(2S)-4-[2-(4-chloro-3-fluorophenoxy)acetamido]-2-hydroxybicyclo[2.2.2]octan-1-yl}-2-oxo-2H-1-benzopyran-6-carboxamide] | 1000 to 2000 nM
6 | Cc1nc(C(=O)NC23CC(NC(=O)COc4ccc(Cl)c(F)c4)(C2)C3)sc1C [Compound 470, N-{3-[2-(4-chloro-3-fluorophenoxy)acetamido]bicyclo[1.1.1]pentan-1-yl}-4,5-dimethyl-1,3-thiazole-2-carboxamide] | 50 to 250 nM
7 | O=C1COc2cc(C(=O)NC34CC(NC(=O)COc5ccc(Cl)c(F)c5)(C3)C4)ccc2N1 [Compound 794, N-{3-[2-(4-chloro-3-fluorophenoxy)acetamido]bicyclo[1.1.1]pentan-1-yl}-3-oxo-3,4-dihydro-2H-1,4-benzoxazine-7-carboxamide] | > 2000 nM
8 | O=C(COc1ccc(Cl)c(F)c1)NC12CC(NC(=O)c3ccc4[nH]c(=O)[nH]c4n3)(C1)C2 [Compound 205, N-{3-[2-(4-chloro-3-fluorophenoxy)acetamido]bicyclo[1.1.1]pentan-1-yl}-2-oxo-2,3-dihydro-1H-imidazo[4,5-b]pyridine-5-carboxamide] | > 2000 nM
9 | Cn1nc(C(=O)NC23CC(NC(=O)COc4ccc(Cl)c(F)c4)(C2)C3)cc1C(F)(F)F [Compound 789, N-{3-[2-(4-chloro-3-fluorophenoxy)acetamido]bicyclo[1.1.1]pentan-1-yl}-1-methyl-5-(trifluoromethyl)-1H-pyrazole-3-carboxamide] | 50 to 250 nM
10 | CCc1ncc(C(=O)NC23CC(NC(=O)COc4ccc(Cl)c(F)c4)(C2)C3)o1 [Compound 290, N-{3-[2-(4-chloro-3-fluorophenoxy)acetamido]bicyclo[1.1.1]pentan-1-yl}-2-ethyl-1,3-oxazole-5-carboxamide] | 50 to 250 nM
11 | CCn1ccc(C(=O)NC23CC(NC(=O)COc4ccc(Cl)c(F)c4)(C2)C3)n1 [Compound 850, N-{3-[2-(4-chloro-3-fluorophenoxy)acetamido]bicyclo[1.1.1]pentan-1-yl}-1-ethyl-1H-pyrazole-3-carboxamide] | 50 to 250 nM
12 | Cn1nc(C(F)F)cc1C(=O)NC12CCC(NC(=O)COc3ccc(Cl)c(F)c3)(CC1)C[C@@H]2O [Compound 413, N-{(2S)-4-[2-(4-chloro-3-fluorophenoxy)acetamido]-2-hydroxybicyclo[2.2.2]octan-1-yl}-3-(difluoromethyl)-1-methyl-1H-pyrazole-5-carboxamide] | < 50 nM
13 | O=C(COc1ccc(Cl)c(F)c1)NC12CCC(NC(=O)c3ccccc3C(=O)O)(CC1)CC2O (stereo not drawn) [Compound 656, 2-({4-[2-(4-chloro-3-fluorophenoxy)acetamido]-3-hydroxybicyclo[2.2.2]octan-1-yl}carbamoyl)benzoic acid] | > 2000 nM
14 | Cc1ncc(C(=O)NC23CC(NC(=O)COc4ccc(Cl)c(Cl)c4)(C2)C3)o1 [Compound 675, N-{3-[2-(3,4-dichlorophenoxy)acetamido]bicyclo[1.1.1]pentan-1-yl}-2-methyl-1,3-oxazole-5-carboxamide] | 50 to 250 nM
15 | CC(=O)Nc1cncc(C(=O)NC23CC(NC(=O)COc4ccc(Cl)c(F)c4)(C2)C3)c1 [Compound 822, 5-acetamido-N-{3-[2-(4-chloro-3-fluorophenoxy)acetamido]bicyclo[1.1.1]pentan-1-yl}pyridine-3-carboxamide] | > 2000 nM
16 | CCc1cnc(C(=O)NC23CC(NC(=O)COc4ccc(Cl)c(Cl)c4)(C2)C3)cn1 [Compound 711, N-{3-[2-(3,4-dichlorophenoxy)acetamido]bicyclo[1.1.1]pentan-1-yl}-5-ethylpyrazine-2-carboxamide] | < 50 nM
17 | Cc1noc(C(=O)NC23CCC(NC(=O)COc4ccc(Cl)c(F)c4)(CC2)C(O)C3)n1 (stereo not drawn) [Compound 503, N-{4-[2-(4-chloro-3-fluorophenoxy)acetamido]-3-hydroxybicyclo[2.2.2]octan-1-yl}-3-methyl-1,2,4-oxadiazole-5-carboxamide] | 50 to 250 nM
18 | O=C(COc1ccc(Cl)c(F)c1)NC12CC(NC(=O)c3ccnc(C(=O)O)c3)(C1)C2 [Compound 280, 4-({3-[2-(4-chloro-3-fluorophenoxy)acetamido]bicyclo[1.1.1]pentan-1-yl}carbamoyl)pyridine-2-carboxylic acid] | > 2000 nM
19 | Cn1ncc2cccc(C(=O)NC34CC(NC(=O)COc5ccc(Cl)c(F)c5)(C3)C4)c21 [Compound 786, N-{3-[2-(4-chloro-3-fluorophenoxy)acetamido]bicyclo[1.1.1]pentan-1-yl}-1-methyl-1H-indazole-7-carboxamide] | > 2000 nM
20 | O=C(COc1ccc(Cl)c(F)c1)NC12CC(NC(=O)c3noc4ccccc34)(C1)C2 [Compound 346, N-{3-[2-(4-chloro-3-fluorophenoxy)acetamido]bicyclo[1.1.1]pentan-1-yl}-1,2-benzoxazole-3-carboxamide] | 250 to 1000 nM
21 | O=C(COc1ccc(Cl)c(F)c1)NC12CC(NC(=O)c3cnc4ccccc4c3)(C1)C2 [Compound 587, N-{3-[2-(4-chloro-3-fluorophenoxy)acetamido]bicyclo[1.1.1]pentan-1-yl}quinoline-3-carboxamide] | 50 to 250 nM
22 | Cc1cc(C(=O)NC23CCC(NC(=O)COc4ccc(Cl)c(F)c4)(CC2)C(=O)C3)on1 [Compound 630, N-{4-[2-(4-chloro-3-fluorophenoxy)acetamido]-3-oxobicyclo[2.2.2]octan-1-yl}-3-methyl-1,2-oxazole-5-carboxamide] | 250 to 1000 nM
23 | Cn1nccc1C(=O)NC12CC(NC(=O)COc3ccc(Cl)c(F)c3)(C1)C2 [Compound 388, N-{3-[2-(4-chloro-3-fluorophenoxy)acetamido]bicyclo[1.1.1]pentan-1-yl}-1-methyl-1H-pyrazole-5-carboxamide] | 250 to 1000 nM
24 | Cc1nc2cc(C(=O)NC34CC(NC(=O)COc5ccc(Cl)c(F)c5)(C3)C4)ccc2n1C [Compound 810, N-{3-[2-(4-chloro-3-fluorophenoxy)acetamido]bicyclo[1.1.1]pentan-1-yl}-1,2-dimethyl-1H-benzimidazole-5-carboxamide] | > 2000 nM
